Experimental data reported in BindingDB's records for doi:10.7270/Q2XS5SVJ (Nmmlsc, 2010).

target: Guanine nucleotide-binding protein G(o) subunit alpha (Homo sapiens, UniProt P09471); experiment: RGS16-Galphao interaction regulators, SAR follow-up, biochemical, multiplexed bead assay, additional SAR round (AID 2828)
Sequence (P09471 whole entry): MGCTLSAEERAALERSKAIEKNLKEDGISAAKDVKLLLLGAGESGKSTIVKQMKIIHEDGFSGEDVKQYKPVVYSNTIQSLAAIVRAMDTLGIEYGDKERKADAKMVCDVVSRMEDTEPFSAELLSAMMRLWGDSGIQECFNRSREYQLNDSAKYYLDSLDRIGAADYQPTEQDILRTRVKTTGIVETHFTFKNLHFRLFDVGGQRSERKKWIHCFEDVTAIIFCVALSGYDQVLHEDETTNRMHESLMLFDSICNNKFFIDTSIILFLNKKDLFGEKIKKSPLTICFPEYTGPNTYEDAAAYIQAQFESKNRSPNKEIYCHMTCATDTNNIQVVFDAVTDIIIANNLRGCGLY

Row | EC50 | SMILES
1 | > 30 µM | O=C(c1sc2cc([N+](=O)[O-])ccc2c1Cl)N1CCNCC1
2 | > 30 µM | O=C(NCCCN1CCOCC1)c1sc2cc([N+](=O)[O-])ccc2c1Cl [3-chloranyl-N-(3-morpholin-4-ylpropyl)-6-nitro-1-benzothiophene-2-carboxamide]
3 | > 30 µM | NC(=O)c1sc2cc([N+](=O)[O-])ccc2c1Cl [KSC-1-100]
4 | > 30 µM | Cc1ccc2c(Cl)c(C(=O)NCCCN3CCOCC3)sc2c1 [KUC103874N]
5 | > 30 µM | O=C(NCCCn1ccnc1)c1sc2cc([N+](=O)[O-])ccc2c1Cl [3-chloro-N-[3-(1-imidazolyl)propyl]-6-nitro-1-benzothiophene-2-carboxamide]
